In one experiment the target is T1, Integrin alpha-4 (Homo sapiens, UniProt P13612).
T1 sequence (P13612 whole entry): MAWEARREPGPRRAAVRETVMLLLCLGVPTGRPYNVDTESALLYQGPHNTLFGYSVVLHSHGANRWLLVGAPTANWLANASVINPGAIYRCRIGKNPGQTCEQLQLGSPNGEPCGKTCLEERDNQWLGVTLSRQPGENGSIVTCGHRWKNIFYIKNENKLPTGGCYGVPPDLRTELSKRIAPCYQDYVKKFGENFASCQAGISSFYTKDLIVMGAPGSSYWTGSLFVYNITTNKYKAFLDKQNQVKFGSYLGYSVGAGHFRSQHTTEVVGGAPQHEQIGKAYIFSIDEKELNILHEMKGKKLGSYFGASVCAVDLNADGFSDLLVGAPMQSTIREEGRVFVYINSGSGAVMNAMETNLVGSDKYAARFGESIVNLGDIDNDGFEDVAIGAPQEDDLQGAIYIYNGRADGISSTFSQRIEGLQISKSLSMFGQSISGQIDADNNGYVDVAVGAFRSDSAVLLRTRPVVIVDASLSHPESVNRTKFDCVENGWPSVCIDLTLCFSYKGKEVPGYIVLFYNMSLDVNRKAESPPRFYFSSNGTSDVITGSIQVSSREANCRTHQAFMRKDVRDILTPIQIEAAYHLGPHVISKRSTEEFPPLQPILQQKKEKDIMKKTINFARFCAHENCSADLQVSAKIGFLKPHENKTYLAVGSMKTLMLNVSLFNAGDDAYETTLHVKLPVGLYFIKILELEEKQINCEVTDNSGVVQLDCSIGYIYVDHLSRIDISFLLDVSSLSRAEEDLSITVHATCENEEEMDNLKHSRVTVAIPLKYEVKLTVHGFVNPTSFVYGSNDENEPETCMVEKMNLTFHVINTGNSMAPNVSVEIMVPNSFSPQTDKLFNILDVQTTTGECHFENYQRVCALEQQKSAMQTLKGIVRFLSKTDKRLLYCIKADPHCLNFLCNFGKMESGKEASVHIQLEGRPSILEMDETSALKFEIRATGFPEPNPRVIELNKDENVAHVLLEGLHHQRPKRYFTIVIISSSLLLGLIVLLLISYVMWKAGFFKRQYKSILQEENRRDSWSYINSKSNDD
The experiment is described as follows: Displacement of [125I]VCAMIg from VLA4 expressed in Jurkat cells. Format: cell-based. On the technique in general: Displacement assays read how much labelled ligand stays bound in the presence of the test substance.

Experiment [1] has as its target Integrin alpha-4 (Homo sapiens) (UniProt P13612). Briefly: Displacement of [125I]VCAMIg from VLA4 expressed in Jurkat cells at 100 uM. In kind it is cell-based.

For orientation: IC50 means the concentration at which inhibition is half-maximal. Higher therefore signals weaker potency. Molecule `CC(C)C(c1nc(Cc2ccc3ccccc3c2)c(C(=O)O)[nH]1)N(C)S(=O)(=O)c1cc(Cl)cc(Cl)c1` (stereo not given) came in with an IC50 at Integrin alpha-4 of 2540 nM. A word on the inhibition: it is how much of the control response was suppressed. Low values mean a response near the control, high ones a response far below the control. `O=C(O)c1nc(C2CCCN2S(=O)(=O)c2cc(Cl)cc(Cl)c2)sc1-c1ccc2ccccc2c1` (stereo not given) gave an inhibition in experiment [1] of 19%. The same measure, in the same setting: the result for `O=C(O)c1[nH]c(C2CCCN2S(=O)(=O)c2cc(Cl)cc(Cl)c2)nc1-c1ccc2ccccc2c1` (stereo not given) reads 8%.

Regarding `O=C(O)c1[nH]c(CN(C2CCCCC2)S(=O)(=O)c2cc(Cl)cc(Cl)c2)nc1Cc1ccc2ccccc2c1`, the IC50 at Integrin alpha-4 was 285 nM. Still for that read-out and setting: the result for `O=C(O)[C@H](Cc1ccccc1)NC(=O)[C@@H]1CCCN1S(=O)(=O)c1cc(Cl)cc(Cl)c1` reads 1.4 nM; that for `COc1ccccc1-c1ccc(C[C@H](NC(=O)[C@@H]2CCCN2S(=O)(=O)c2cc(Cl)cc(Cl)c2)C(=O)O)cc1`, 0.64 nM; that for `O=C(O)c1nc(CN(C2CCCCC2)S(=O)(=O)c2cc(Cl)cc(Cl)c2)[nH]c1Cc1ccc(-c2ccccc2)cc1`, 237 nM. Take `O=C(O)c1[nH]c(CN(C2CCCCC2)S(=O)(=O)c2cc(Cl)cc(Cl)c2)nc1-c1ccc(-c2ccccc2)cc1`: the inhibition in experiment [1] worked out at 45%. As for `O=C(O)c1[nH]c(C2CCCN2S(=O)(=O)c2cc(Cl)cc(Cl)c2)nc1Cc1ccc2ccccc2c1` (stereo not given), the inhibition in experiment [1] was 30%. The molecule `O=C(O)C(Cc1ccccc1)N1C[C@@H]2CCN(S(=O)(=O)c3cc(Cl)cc(Cl)c3)[C@@H]2C1=O` (stereo not given in full) gave an IC50 on Integrin alpha-4 of 2100 nM.

Values taken from ChEMBL document CHEMBL1141621, “Constraining the amide bond in N-sulfonylated dipeptide VLA-4 antagonists” (Bioorg Med Chem Lett, 2008).
